The values that follow come from patent US10626094B2 (La Jolla Institute of Allergy & Immunology, priority 2014, dated 2020).

What is called IC50 is the concentration that inhibits the measured activity by half.

The target in the assay is LMPTP-A (Low Molecular Weight Protein Tyrosine Phosphatase-A) enzyme (Homo sapiens (Human), UniProt P24666). The assay can be described thus: LMPTP primary screening / LMPTP (OMFP) enzyme inhibition assay, fluorescence intensity. The note with it: LMPTP-A, OMFP substrate, method of Example 2; read-out: IC50. The format is biochemical. On the procedure: This assay attempts to identify inhibitors of the LMPTP-A (Low Molecular Weight Protein Tyrosine Phosphatase-A) enzyme. It is run in 1536-well format and is measured via fluorescence intensity.
LMPTP-A (Low Molecular Weight Protein Tyrosine Phosphatase-A) enzyme, sequence (P24666 whole entry): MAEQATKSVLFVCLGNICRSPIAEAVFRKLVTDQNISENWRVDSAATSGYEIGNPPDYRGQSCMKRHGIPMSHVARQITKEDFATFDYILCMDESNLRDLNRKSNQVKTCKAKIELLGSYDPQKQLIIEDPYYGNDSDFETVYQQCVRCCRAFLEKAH
A listing of materials is provided: • Item, source, catalog no. • LMPTP-A Enzyme Stock Solution (4.22 mg/ml or 206.8 μM), SBMRI Protein Facility, • N/A • OMFP, Sigma, M2629-100MG • Bis-Tris pH 6.0, Fisher Sci, BP301-100 • Triton-X 100, Sigma, T9284 • DTT, Sigma, D9779 • Mol. Grade Water, Mediatech, Inc., 46-000-CM • 1536-well black High base opaque bottom plate, Nexus Biosystems, 00019120
Final assay conditions are: • 0.625 nM LMPTP-A Enzyme • 400 μM OMFP • 50 mM Bis-Tris pH 6.0 • 1 mM DTT • 0.01% Triton-X 100 • 20 μM test compound • 3% DMSO (2% from substrate and 1% from compounds) • 6 μL reaction volume • 50 minutes incubation at room temp
Assay Procedure • 1. Prepare Reagents as described in section F. Recipe. • 2. Using LabCyte Echo, transfer 60 nL from 2 mM test compound source plate into assay plate Col. 5-48 (final concentration of test compounds is 20 μM). 60 nL of DMSO should be transferred to col. 1-4 for positive and negative control wells. • 3. Spin plates at 1000 rpm for 1 minute in centrifuge. • 4. […] Using the Bioraptr, add 3 μL/well of enzyme solution to col. 3-48. • 6. Using the Bioraptr, add 3 μL/well of substrate solution to col. 1-48. • 7. Spin plates at 1000 rpm for 1 minute in centrifuge. • 8. Incubate plates in the dark at room temperature for 50 minutes. • 9. Read plates on PerkinElmer Viewlux using a FI protocol.
With `COc1ccc(-c2cc(NCCc3ccncc3)c3ccccc3n2)cc1` [Compound I201, [2-(4-methoxyphenyl)(4-quinolyl)](2-(4-pyridyl)ethyl)amine], the concentration for half-maximal inhibition (IC50) was 0.801 to 5 µM.

On to `Clc1ncccc1-c1cc(NCCCN2CCCCC2)c2ccccc2n1` [Compound I99], for which the IC50 was in the range of 0.801 to 5 µM. With `COc1ccc(-c2cc(Nc3ccc(Br)cc3)c3ccccc3n2)cc1` [Compound G41, (4-bromophenyl)[2-(4-methoxyphenyl)(4-quinolyl)]amine] the figure was 0.801 to 5 µM; with `COc1ccc(-c2cc(Nc3cccc(CC4CCN(S(C)(=O)=O)CC4)c3)c3ccccc3n2)cc1` [Compound I28, 4-[(3-{[2-(4-methoxyphenyl)(4-quinolyl)]amino}phenyl)methyl]-1-(methylsulfonyl)piperidine], 0.801 to 5 µM.

Take `COc1ccc(-c2cc(Nc3cccc(Cc4nn[nH]n4)c3)c3ccccc3n2)cc1` [Compound I27, [2-(4-methoxyphenyl)(4-quinolyl)][3-(2H-1,2,3,4-tetraazol-5-ylmethyl)phenyl]amine]: the IC50 was 0.801 to 5 µM. In the case of `Clc1cccc(-c2cc(Nc3cccc(CN4CCCC4)c3)c3ccccc3n2)c1` [Compound I12, [2-(3-chlorophenyl)(4-quinolyl)][3-(pyrrolidinylmethyl)phenyl]amine] it was 0.801 to 5 µM; in that of `Fc1ccc(-c2cc(NCCCN3CCCCC3)c3ccccc3n2)c(F)n1` [Compound I90], 0.801 to 5 µM.

Regarding `NC(=O)c1ccc(-c2cc(Nc3ccc(CCN4CCNCC4)cc3)c3ccccc3n2)cc1` [Compound I216, 4-(4-{[4-(2-piperazinylethyl)phenyl]amino}-2-quinolyl)benzamide], the half-maximal inhibitory concentration (IC50) was > 5 µM. In the case of “[2-(2,6-dichlorophenyl)(4-quinolyl)](3-piperidylpropyl)amine [Compound I100]” it was > 5 µM; in that of `O=C(NC1CCCCC1)c1ccc(-c2cc(NCCCN3CCCCC3)c3ccccc3n2)cc1` [Compound I230], 0.801 to 5 µM. `Cc1ccc(C)c(-c2cc(NCCCN3CCCCC3)c3ccccc3n2)c1` [Compound I107]: the IC50 is 0.801 to 5 µM. With `COc1ccc(Cl)cc1-c1cc(NCCCN2CCCCC2)c2ccccc2n1` [Compound I133] the figure was 0.801 to 5 µM; with `Fc1cc(Cl)ccc1-c1cc(Nc2ccc(CN3CCCCC3)cc2)c2ccccc2n1` [Compound I8, [2-(4-chloro-2-fluorophenyl)(4-quinolyl)][4-(piperidylmethyl)phenyl]amine], 0.801 to 5 µM. With `FC(F)(F)c1ccc(Oc2ccc(-c3cc(NCCCN4CCCCC4)c4ccccc4n3)cn2)cc1` [Compound I87] the figure was 0.801 to 5 µM; with `COc1ccc(-c2cc(NCCCN3CCCCC3)c3ccccc3n2)cn1` [Compound I156], 0.801 to 5 µM; with `CSc1ccccc1-c1cc(NCCCN2CCCCC2)c2ccccc2n1` [Compound I158], 0.2 to 0.8 µM. With `COc1ccc(-c2cc(Nc3ccc(CC4CCN(C(C)=O)CC4)cc3)c3ccccc3n2)cc1` [Compound I34, 1-acetyl-4-[(4-{[2-(4-methoxyphenyl)(4-quinolyl)]amino}phenyl)methyl]piperidine] the figure was 0.801 to 5 µM; with `COc1ccc(CNc2cc(-c3ccc(OC)cc3)nc3ccccc23)cc1` [Compound G79, [2-(4-methoxyphenyl)(4-quinolyl)][(4-methoxyphenyl)methyl]amine], 0.801 to 5 µM. `COc1ccc(-c2cc(Nc3ccc(C)cc3)c3ccccc3n2)cc1` [Compound G43, [2-(4-methoxyphenyl)(4-quinolyl)](4-methylphenyl)amine]: the IC50 lay within 0.801 to 5 µM. For the molecule `COc1ccc(-c2cc(NCCCc3cccnc3)c3ccccc3n2)cc1` [Compound I203], the IC50 was 0.801 to 5 µM. With “[2-(3-chloro-2-prop-2-enyloxy(4-pyridyl))(4-quinolyl)](3-piperidylpropyl)amine [Compound I91]” the figure was > 5 µM. As to `COc1ccc(-c2cc(NCc3ccc(CN4CCOCC4)cc3)c3ccccc3n2)cc1` [Compound I211, [2-(4-methoxyphenyl)(4-quinolyl)]{[4-(morpholin-4-ylmethyl)phenyl]methyl}amine], the IC50 lay within 0.801 to 5 µM. With `NC(=O)c1ccc(-c2cc(NCCCN3CCCCC3)c3ccccc3n2)cc1Cl` [Compound I82], the IC50 is 0.2 to 0.8 µM.

Regarding `CN(C)S(=O)(=O)c1ccc(C(F)(F)F)c(-c2cc(NCCCN3CCCCC3)c3ccccc3n2)c1` [Compound I106], the IC50 is 0.801 to 5 µM. With `O=C(O)CCC(=O)Nc1ccc(-c2cc(NCCCN3CCCCC3)c3ccccc3n2)cc1` [Compound I58] the figure was 0.801 to 5 µM; with `CCOc1ncccc1-c1cc(NCCCN2CCCCC2)c2ccccc2n1` [Compound I96], 0.801 to 5 µM. For the molecule `c1coc(-c2cc(NCCCN3CCCCC3)c3ccccc3n2)c1` [Compound G12, (2-Furan-2-yl-quinolin-4-yl)-(3-piperidin-1-yl-propyl)-amine], the IC50 is 0.801 to 5 µM.

With `COc1ccc(-c2cc(Nc3cccc(CC4CCN(C(C)=O)CC4)c3)c3ccccc3n2)cc1` [Compound I29, 1-acetyl-4-[(3-{[2-(4-methoxyphenyl)(4-quinolyl)]amino}phenyl)methyl]piperidine], the IC50 is 0.2 to 0.8 µM. In the case of `COc1ccc(-c2cc(Nc3ccccc3CC3CCNCC3)c3ccccc3n2)cc1` [Compound I38, [2-(4-methoxyphenyl)(4-quinolyl)][2-(4-piperidylmethyl)phenyl]amine] it was > 5 µM; in that of `CSc1ccc(-c2cc(NCCCN3CCCCC3)c3ccccc3n2)cc1` [Compound I169], 0.801 to 5 µM. In the case of `COc1ccc(-c2cc(Nc3ccc4ccccc4n3)c3ccccc3n2)cc1` [Compound G68, [2-(4-methoxyphenyl)(4-quinolyl)]-2-quinolylamine] it was 0.801 to 5 µM; in that of `O=C(c1ccc(-c2cc(NCCCN3CCCCC3)c3ccccc3n2)cc1)N1CCNCC1` [Compound I193, piperazinyl 4-{4-[(3-piperidylpropyl)amino](2-quinolyl)}phenyl ketone], 0.2 to 0.8 µM; in that of `C[N+]1(C)CCC(Cc2ccccc2Nc2cc(-c3cc(C(F)(F)F)cc(C(F)(F)F)c3)nc3ccccc23)CC1` [Compound I48, {2-[(1,1-dimethyl(4-piperidyl))methyl]phenyl} {2-[3,5-bis(trifluoromethyl)phenyl](4-quinolyl)}amine], > 5 µM. With `FC(F)(F)c1cc(-c2cc(Nc3ccc(CN4CCCCC4)cc3)c3ccccc3n2)cc(C(F)(F)F)c1` [Compound I43, {2-[3,5-bis(trifluoromethyl)phenyl](4-quinolyl)}[4-(piperidylmethyl)phenyl]amine] the figure was > 5 µM; with `COc1ccc(-c2cc(NCCCN3CCCCC3)c3cc([N+](=O)[O-])ccc3n2)cc1` [Compound G29, [2-(4-Methoxy-phenyl)-6-nitro-quinolin-4-yl]-(3-piperidin-1-yl-propyl)-amine], > 5 µM; with `CS(=O)(=O)c1cccc(-c2cc(NCCCN3CCCCC3)c3ccccc3n2)c1` [Compound I146], 0.801 to 5 µM. `FC(F)(F)c1cc(-c2cc(Nc3cccc(CN4CCCC4)c3)c3ccccc3n2)cc(C(F)(F)F)c1` [Compound I44, {2-[3,5-bis(trifluoromethyl)phenyl](4-quinolyl)}[3-(pyrrolidinylmethyl)phenyl]amine]: the IC50 is > 5 µM. As to `Fc1ccc(-c2cc(NCCCC3CCCNC3)c3ccccc3n2)cc1` (stereo not shown) [Compound I188, [2-(4-fluorophenyl)(4-quinolyl)](3-piperidylpropyl)amine], the IC50 lay in the range of 0.801 to 5 µM. With `NCc1ccc(-c2cc(NCCCN3CCCCC3)c3ccccc3n2)cc1` [Compound I148] the figure was 0.2 to 0.8 µM; with `Cc1cccc(-c2cc(NCCCN3CCCCC3)c3ccccc3n2)c1C` [Compound I161], 0.801 to 5 µM; with `c1ccc(CSc2cccc(-c3cc(NCCCN4CCCCC4)c4ccccc4n3)c2)cc1` [Compound I245], > 5 µM. With `COc1ccc(-c2cc(Nc3ccncn3)c3ccccc3n2)cc1` [Compound G70, [2-(4-methoxyphenyl)(4-quinolyl)]pyrimidin-4-ylamine] the figure was 0.801 to 5 µM; with `CCOC(=O)CNC(=O)c1ccc(-c2cc(NCCCN3CCCCC3)c3ccccc3n2)cc1` [Compound I65], 0.2 to 0.8 µM; with `CCN(CC)S(=O)(=O)c1cccc(-c2cc(NCCCN3CCCCC3)c3ccccc3n2)c1` [Compound I244], > 5 µM. `COc1ccc(-c2cc(Nc3ccc(CC4CCNCC4)cc3)c3ccccc3n2)cc1` [Compound I32, [2-(4-methoxyphenyl)(4-quinolyl)][4-(4-piperidylmethyl)phenyl]amine]: the IC50 lay within 0.801 to 5 µM. With `Clc1cccc(-c2cc(Nc3cccc(CC4CCNCC4)c3)c3ccccc3n2)c1` [Compound I19, [2-(3-chlorophenyl)(4-quinolyl)][3-(4-piperidylmethyl)phenyl]amine], the IC50 lay within 0.801 to 5 µM.
